Reference: the supplement of paper PMC7214452
Counter-ions that a name gives are not always drawn.

Tests used:
Test in all cases: normalized area under the dose-response curve (viability relative to DMSO control) (fraction); higher = less sensitive (more viable cells)
Settings in all cases: exposure time not given
KMS34 (cancer type: MM) = test system: KMS34 (cancer type: MM)
Description: (§1)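 25 myeloma and 15 non-Hodgkin lymphoma cell lines were exposed to each of 76 drugs as 7-point log dilutions (0.01 nM–10 µM) in duplicate. Viability was read with CellTiter-Glo and normalised to DMSO (0.1%) and staurosporine (10 µM) plate controls. Normalised AUC was calculated by the trapezoidal method relative to the negative control.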

AMO1 (cancer type: MM) = test system: AMO1 (cancer type: MM)
Description: as §1

KMS26 (cancer type: MM) = test system: KMS26 (cancer type: MM)
Description: as §1

U266 (cancer type: MM) = test system: U266 (cancer type: MM)
Description: as §1

[1] = test system: JVM2 (cancer type: Mantle)
Description: as §1

[2] = test system: OCI-LY3 (cancer type: DLBCL)
Description: as §1

[3] = test system: NCI-H929 (cancer type: MM)
Description: as §1

[4] = test system: SU-DHL2 (cancer type: DLBCL)
Description: as §1

[5] = test system: SU-DHL1 (cancer type: TCL)
Description: as §1

[6] = test system: KMS28BM (cancer type: MM)
Description: as §1

[7] = test system: Mino (cancer type: Mantle)
Description: as §1

MM1.S (cancer type: MM) = test system: MM1.S (cancer type: MM)
Description: as §1

KMS18 (cancer type: MM) = test system: KMS18 (cancer type: MM)
Description: as §1

My-La (cancer type: TCL) = test system: My-La (cancer type: TCL)
Description: as §1

[8] = test system: RPMI 8226 (cancer type: MM)
Description: as §1

[9] = test system: OCI-MY7 (cancer type: MM)
Description: as §1

EJM (cancer type: MM) = test system: EJM (cancer type: MM)
Description: as §1

[10] = test system: Granta-519 (cancer type: Mantle)
Description: as §1

OPM2 (cancer type: MM) = test system: OPM2 (cancer type: MM)
Description: as §1

[11] = test system: SR-786 (cancer type: TCL)
Description: as §1

[12] = test system: Karpas-299 (cancer type: TCL)
Description: as §1

Se-Ax (cancer type: TCL) = test system: Se-Ax (cancer type: TCL)
Description: as §1

FR4 (cancer type: MM) = test system: FR4 (cancer type: MM)
Description: as §1

[13] = test system: SU-DHL6 (cancer type: DLBCL)
Description: as §1

[14] = test system: OCI-LY19 (cancer type: DLBCL)
Description: as §1

L363 (cancer type: MM) = test system: L363 (cancer type: MM)
Description: as §1

[15] = test system: OCI-LY1 (cancer type: DLBCL)
Description: as §1

JJN3 (cancer type: MM) = test system: JJN3 (cancer type: MM)
Description: as §1

[16] = test system: OCI-MY5 (cancer type: MM)
Description: as §1

[17] = test system: KMS12PE (cancer type: MM)
Description: as §1

LP1 (cancer type: MM) = test system: LP1 (cancer type: MM)
Description: as §1

[18] = test system: KMS28PE (cancer type: MM)
Description: as §1

[19] = test system: JeKo-1 (cancer type: Mantle)
Description: as §1

[20] = test system: HuT 78 (cancer type: TCL)
Description: as §1

MM1.R (cancer type: MM) = test system: MM1.R (cancer type: MM)
Description: as §1

KMS11 (cancer type: MM) = test system: KMS11 (cancer type: MM)
Description: as §1

SKMM2 (cancer type: MM) = test system: SKMM2 (cancer type: MM)
Description: as §1

XG2 (cancer type: MM) = test system: XG2 (cancer type: MM)
Description: as §1

[21] = test system: OCI-MY5/CRBN (cancer type: MM)
Description: as §1

[22] = test system: OCI-MY5/Vec (cancer type: MM)
Description: as §1

Structure (SMILES)	normalized area under the dose-response curve (KMS34 (cancer type: MM))	normalized area under the dose-response curve (AMO1 (cancer type: MM))	normalized area under the dose-response curve (KMS26 (cancer type: MM))	normalized area under the dose-response curve (U266 (cancer type: MM))	normalized area under the dose-response curve [1]	normalized area under the dose-response curve [2]	normalized area under the dose-response curve [3]	normalized area under the dose-response curve [4]	normalized area under the dose-response curve [5]	normalized area under the dose-response curve [6]	normalized area under the dose-response curve [7]	normalized area under the dose-response curve (MM1.S (cancer type: MM))	normalized area under the dose-response curve (KMS18 (cancer type: MM))	normalized area under the dose-response curve (My-La (cancer type: TCL))	normalized area under the dose-response curve [8]	normalized area under the dose-response curve [9]	normalized area under the dose-response curve (EJM (cancer type: MM))	normalized area under the dose-response curve [10]	normalized area under the dose-response curve (OPM2 (cancer type: MM))	normalized area under the dose-response curve [11]	normalized area under the dose-response curve [12]	normalized area under the dose-response curve (Se-Ax (cancer type: TCL))	normalized area under the dose-response curve (FR4 (cancer type: MM))	normalized area under the dose-response curve [13]	normalized area under the dose-response curve [14]	normalized area under the dose-response curve (L363 (cancer type: MM))	normalized area under the dose-response curve [15]	normalized area under the dose-response curve (JJN3 (cancer type: MM))	normalized area under the dose-response curve [16]	normalized area under the dose-response curve [17]	normalized area under the dose-response curve (LP1 (cancer type: MM))	normalized area under the dose-response curve [18]	normalized area under the dose-response curve [19]	normalized area under the dose-response curve [20]	normalized area under the dose-response curve (MM1.R (cancer type: MM))	normalized area under the dose-response curve (KMS11 (cancer type: MM))	normalized area under the dose-response curve (SKMM2 (cancer type: MM))	normalized area under the dose-response curve (XG2 (cancer type: MM))	normalized area under the dose-response curve [21]	normalized area under the dose-response curve [22]
CO[C@H]1C[C@@H]2CC[C@@H](C)[C@@](O)(O2)C(=O)C(=O)N2CCCC[C@H]2C(=O)O[C@H]([C@H](C)C[C@@H]2CC[C@@H](OC(=O)C(C)(CO)CO)[C@H](OC)C2)CC(=O)[C@H](C)/C=C(\C)[C@@H](O)[C@@H](OC)C(=O)[C@H](C)C[C@H](C)/C=C/C=C/C=C/1C [Temsirolimus]	0.559	0.695	0.978	0.752	0.559	0.648	0.74	0.576	0.71	0.859	0.691	0.63	0.754	0.764	0.763	0.79	0.823	0.695	0.749	0.745	0.585	0.663	0.789	0.72	0.697	0.7	0.685	0.774	0.775	0.69	0.746	0.696	0.744	0.722	0.68	0.752	0.912	0.725	0.772	0.884
COc1cc2/c(=N/c3ccc(Br)cc3F)nc[nH]c2cc1OCC1CCN(C)CC1 [Vandetanib]	0.623	0.767	0.962	0.746	0.773	0.993	0.87	0.911	0.77	0.985	0.921	0.86	0.774	0.906	0.905	0.96	0.672	0.892	0.861	0.961	0.896	0.784	0.922	0.96	0.969	0.795	0.918	0.873	0.784	0.95	0.684	0.844	0.937	0.892	0.87	0.777	0.963	0.726	0.95	0.908
CCCS(=O)(=O)Nc1ccc(F)c(C(=O)c2c[nH]c3ncc(-c4ccc(Cl)cc4)cc23)c1F [Vemurafenib]	0.765	0.808	0.965	0.8	0.924	0.951	0.79	0.972	0.867	1.28	0.917	0.95	0.938	0.976	0.975	0.94	0.902	0.957	0.936	0.98	0.969	0.673	0.825	0.92	0.912	0.898	0.933	0.784	0.788	0.91	0.89	0.998	0.971	0.964	0.97	0.909	0.994	1	0.958	0.998
Cc1ccc(F)c(NC(=O)Nc2ccc(-c3cccc4[nH]nc(N)c34)cc2)c1 [Linifanib]	0.33	0.567	0.709	0.549	0.25	0.983	0.59	0.981	0.519	0.646	0.735	0.55	0.56	0.852	0.165	0.5	0.526	0.861	0.587	0.721	0.651	0.627	0.441	0.955	0.987	0.605	0.995	0.603	0.468	0.73	0.348	0.722	0.759	0.63	0.58	0.65	0.667	0.547	0.55	0.57
C#Cc1cccc(Nc2ncnc3cc(OCCOC)c(OCCOC)cc23)c1 [Erlotinib hydrochloride]	0.805	0.897	0.928	0.946	0.665	0.897	0.88	0.839	0.87	0.847	0.95	0.86	0.84	0.972	0.903	0.84	0.91	0.938	0.86	0.962	0.907	0.84	0.877	0.905	0.864	0.814	0.888	0.878	0.796	0.8	0.869	0.871	0.886	0.756	0.84	0.85	0.922	0.888	0.878	0.861
CCc1cnn2c(NCc3ccc[n+]([O-])c3)cc(N3CCCC[C@H]3CCO)nc12 [Dinaciclib]	0.124	0.03	0.0286	0.0357	0.259	0.148	0.04	0.393	0.0533	0.0793	0.392	0.03	0.0366	0.582	0.0467	0.02	0.0534	0.625	0.0465	0.0218	0.0458	0.31	0.0504	0.667	0.414	0.0142	0.0794	0.0469	0.0272	0.04	0.0551	0.169	0.0614	0.0209	0.03	0.084	0.628	0.0928	0.0017	0.0029
Cc1sc2c(c1C)C(c1ccc(Cl)cc1)=N[C@@H](CC(=O)OC(C)(C)C)c1nnc(C)n1-2 [jq1]	0.501	0.48	0.475	0.852	0.564	0.707	0.53	0.635	0.674	0.78	0.598	0.53	0.813	0.747	0.616	0.39	0.703	0.899	0.671	0.647	0.661	0.566	0.613	0.829	0.679	0.529	0.812	0.57	0.488	0.65	0.65	0.647	0.684	0.566	0.55	0.654	0.672	0.747	0.645	0.57
C[C@@H]1CCN(C(=O)CC#N)C[C@@H]1N(C)c1ncnc2[nH]ccc12 [Tofacitinib]	0.89	0.901	0.957	0.874	0.931	0.952	0.92	0.93	0.97	0.962	0.957	0.85	1.01	0.877	1	0.95	0.941	0.94	0.938	0.856	0.891	0.929	1	0.969	0.996	0.904	0.994	0.966	0.944	1.01	0.858	0.936	1.05	0.879	0.92	0.933	0.978	0.838	0.97	1.02
